The results in this text go back to patent publication US9717772B2, “Interval therapy for the treatment of loss of eyesight in humans with glaucoma and other degenerative eye diseases” (Ramot at Tel-Aviv University Ltd., priority 2012, dated 2017).

The nature of series [1]: Half-life and concentrations of substance in the rat / vitreal space of the eye. It counts as in vivo. How it is done:
In a further experiment, rats are treated systemically (s.c.) and the experiment is repeated as above. The aim of this study is to verify whether systemic administration produces sufficiently high concentrations in the eye. Therefore, additionally, concentrations of substances of the instant invention are analyzed in the vitreal space of the eye. In animals treated systemically with experimental substances, there is a decrease in RGC apoptosis at least at one time point assessed and significant concentrations of the experimental substances are detected in the vitreal space of the eye.
The experiment is repeated as described above, except that substance is applied (s.c.) once 24 hrs before induction of glaucoma.
In another animal study with glaucomatous rats (procedure as described above, Morrison model) D-Trp-Aib (SEQ ID NO. 30) is applied 3 days prior to the induction of glaucoma (one single s.c injection). […] The explanation of this unexpected finding is that the pretreatment with D-Trp-Aib (SEQ ID NO. 30) leads to formation of non-toxic bulky Aβ aggregates (possibly micro non-toxic bulky Aβ aggregates) consisting of D-Trp-Aib (SEQ ID NO. 30) and physiologically Aβ that is ubiquitously prevailing at low concentrations. These non-toxic bulky Aβ aggregates function in isolating toxic Aβ after glaucoma induction even if the Aβ is released at higher concentrations.

The test system of series [2] is CA1 region of the hippocampus (Aβ1-42 inhibition of LTP). Description: Long-term potentiation (LTP) of fEPSPs in hippocampal slices after Aβ1-42 aggregated with or without D-Trp-Aib. It counts as cell-based, mice. The following applies: Aβ1-42 50 nM aggregated under serial dilution conditions without D-Trp-Aib. How it is done: Aβ1-42 (order number 62-0-80, batch Y11042T1, American Peptide Company, Sunnyvale, Calif. 94086, U.S.A.) is suspended in 100% HFIP (Sigma Aldrich) to approximately 1 mg/ml (2 mg dissolved in 2 ml HFIP) and shaken at 37° C. for 1.5 hours in tightly sealed Eppendorf vials. This is allowed to cool to room temperature and then the solution is portioned into aliquots and the HFIP removed by evaporation using a Speedvac for approximately 30 minutes. When dry, the Aβ1-42 is stored at −20° C. The Aβ1-42 is dissolved in anhydrous DMSO (Sigma Aldrich) to a concentration of 100 fold that required in PBS (i.e. 10 mM for 100 μM) with the aid of an ultrasonic water bath with/without D-Trp-Aib (SEQ ID NO. 30) (i.e. for a 10:1 ratio with D-Trp-Aib (SEQ ID NO. 30) 100 mM for 10 mM Aβ1-42). This solution is then immediately diluted in PBS to a final concentration of 100 μM Aβ in 1% DMSO. These solutions are allowed to aggregate at room temperature for various times (e.g. 1 hour, 1 day, 1 week) before being used. […]
Extracellular recordings of field excitatory postsynaptic potentials (fEPSPs) are obtained from the dendritic region of the CA1 region of the hippocampus using glass micropipettes (1-2 MW) filled with superfusion solution. […] Amplified fEPSPs and NMDA-EPSCs are filtered (3 kHz), digitized (15 kHz) and measured and plotted online, using the “LTP-program”-software. […]

Non-standard residues stand in square brackets, D forms with d. Residues, ends and D or L forms follow the SMILES beside them. Aib = CC(C)(N)C(=O)O

A word on the half-life: it is the time in which the quantity being followed falls by half. Read a low half-life as fast loss.

Regarding `CC(C)(NC(=O)[C@H](N)Cc1c[nH]c2ccccc12)C(=O)O` [D-Trp-Aib] (H-[dW]-[Aib]-OH; N-terminus and C-terminus assumed), the “detectability in the animal at the time point of glaucoma induction” value in series [1] (3 days after one single s.c injection) was “no longer detectable”. Also, the half-life in series [1] (in vivo, in the rat) lay within 1 to 2 h. On to “Aβ1-42: lyophilized β-amyloid Aβ1-42 peptide (Bachem / American Peptide Company) used as toxic stimulus”, for which, in series [2], the “inhibition of LTP” value is given as “strong inhibition of LTP”.
